Assays:
[1] = test system: scopolamine-induced deficit in mice; assay: Modified light-dark box memory test in mice, scopolamine-induced deficit, drug given immediately post-training (Table 2); assay type: in vivo, Male albino CD-1 mice; details: for Mean latency Day 1 / Mean latency Day 2: ± SEM
Experimental: Male albino CD-1 mice obtained from Charles River were used. They were housed under controlled conditions (temperature 21±2 deg. C., humidity approx. 50%, 12 hour light/dark cycle, food and water ad lib) for one week before use. On the day before test, the mice were housed in groups of six in polythene boxes in the laboratory and marked for identification. Food and water were supplied ad lib. On the test day, animals were weighed and then dosed either 30 minutes before test (piracetam, ondansetron) one hour before test (compound A) or immediately after test.
[…] The dose volume was 10 ml/kg for all routes.
The apparatus consisted of two boxes with an opening 90 mm×60 mm at floor level between them. A plastic door was used to close the opening when required. The smaller box (290 mm×120 mm×120 mm high) was made of opaque plastics, open at the top to allow illumination by normal laboratory lighting. The larger box (305 mm square×280 mm high) was enclosed apart from the single opening.
This consisted of training, with retest 24 hours later. During training, animals were placed individually in the open box facing away from the end with the opening. After a period of exploration, they usually entered the dark box and the latency to entry in seconds was noted. The door to the dark box was closed, and after 30 seconds had elapsed, the animal was removed gently and returned to the holding box. Twenty-four hours later, an identical procedure was used, except that the session ended as soon as the animal had entered the dark box. The latency was again noted. During the interval, the animals were not handled, and were disturbed as little as possible. Each animal was used once only.
(§1) Test drugs or control fluids were given before or immediately after the training session.
Group comparisons were made between latencies to enter the dark compartment on the first and second occasions. For both training and retest occasions, comparisons were made between vehicle and treatment groups. The distribution of latencies was skewed on both learning and retest trials (data not shown), so the non-parametric Mann-Whitney U-test was used. The difference between latencies on the two occasions is presented as % decrease on Day 2 compared with Day 1.
The mean latency to enter the dark box±standard error of the mean was calculated from a group of 12 animals. For a given treatment, figures in the columns labelled `Day 1` and `Day 2` show the mean latencies taken from the same group of animals. The difference between data obtained on the two days is illustrated by showing the % decrease, and the data compared using the Mann-Whitney U-test; NS indicates a p value>0.1.

[2] = test system: release of excitatory amino acids, principally glutamate; details: at anticonvulsant brain concentrations; cited from earlier work
[3] = test system: scopolamine-induced dry mouth in rats; assay: Salivation measurement in rats (Table 6); assay type: in vivo, Male Wistar rats; details: for Mean salivation (blot diameter): ± SEM
Experimental: 15 minutes before observation. Under these conditions, which were identical to those used in the learning experiments described in Example 2, changes in salivation and pupil diameter were measured. Salivation was measured by placing a piece of folded filter paper in the rat's mouth and measuring the diameter of the blot in mm after 1 minute. Pupil diameter was measured using a magnifying glass and graticule under normal lighting conditions. For both measures, comparisons were made between control and drug-treated groups using a Student's T-test on independent samples.
Groups of 6 animals were used.

[4] = test system: voltage-sensitive sodium channels; details: Lang et al 1993; Lees and Leach 1993; cited from earlier work
[5] = test system: scopolamine-induced deficit in rats; assay: Light-dark box memory test in rats, scopolamine-induced deficit, single dose pre-training (Tables 3 and 4); assay type: in vivo, Male Wistar rats; details: for Mean latency Day 1 / Mean latency Day 2: ± SEM
Experimental: Male Wistar rats obtained from Charles River were used. They were housed under controlled conditions (temperature 21±2 deg. C., humidity approx. 50%, 12 hour light/dark cycle, food and water ad lib) for one week before use. On the day before test the rats were permanently housed in groups of six. Food and water were supplied ad lib. On the test day, animals were weighed and then dosed either 30 minutes before test (midazolam), one hour before test (compound A) or immediately after test.
All drugs were dissolved or suspended in 0.25% (w/v) aqueous celacol, and administered orally (by gavage), i.p. or s.c. The dose volume was 5 ml/kg for all routes.
An identical apparatus to that described in Example 1 was used, except that the smaller box measured 370 mm×260 mm×190 mm.
This consisted of training as described for mice under section (d) of Example 1.
as §1
This was as described under section (e) of Example 1.

[6] = saline s.c. + compound A 20 mg/kg i.v. post-training
[7] = saline s.c. + compound A 40 mg/kg p.o. post-training
[8] = scopolamine 1 mg/kg s.c. + compound A 20 mg/kg i.v. post-training
[9] = scopolamine 1 mg/kg s.c. + compound A 40 mg/kg p.o. post-training
[10] = saline s.c. + compound A 40 mg/kg p.o.
[11] = scopolamine 0.1 mg/kg s.c. + compound A 10 mg/kg p.o.
[12] = scopolamine 0.1 mg/kg s.c. + compound A 20 mg/kg p.o.
[13] = scopolamine 0.1 mg/kg s.c. + compound A 40 mg/kg p.o.

Nc1nnc(-c2cccc(Cl)c2Cl)c(N)n1 [Compound A, 3,5-Diamino-6-(2,3-dichlorophenyl)-1,2,4-triazine]
Reversal of scopolamine-induced deficit ([1]; compound A 20 mg/kg i.v. post-training): no reversal of the scopolamine-induced deficit
Reversal of scopolamine-induced deficit ([1]; compound A 40 mg/kg p.o. post-training): no reversal of the scopolamine-induced deficit
Difference between days, % Decrease ([1]; saline s.c. + compound A 20 mg/kg i.v. post-training, p (0.09)): 26%
Mean latency Day 1 [1, 6]: 19.9 ± 2.7 s
Mean latency Day 2 [1, 6]: 14.8 ± 2.1 s
Difference between days, % Decrease ([1]; saline s.c. + compound A 40 mg/kg p.o. post-training, p <0.05): 30%
Mean latency Day 1 [1, 7]: 20.0 ± 2.3 s
Mean latency Day 2 [1, 7]: 13.9 ± 1.5 s
Difference between days, % Decrease ([1]; scopolamine 1 mg/kg s.c. + compound A 20 mg/kg i.v. post-training, p NS): -1%
Mean latency Day 1 [1, 8]: 20.0 ± 2.3 s
Mean latency Day 2 [1, 8]: 20.3 ± 2.5 s
Difference between days, % Decrease ([1]; scopolamine 1 mg/kg s.c. + compound A 40 mg/kg p.o. post-training, p NS): -23%
Mean latency Day 1 [1, 9]: 18.5 ± 1.8 s
Mean latency Day 2 [1, 9]: 22.7 ± 2.6 s
Inhibition of release of excitatory amino acids, principally glutamate [2]: inhibit the release of excitatory amino acids, principally glutamate
Mean salivation (blot diameter) ([3]; compound A 10 mg/kg p.o. + saline s.c.): 8.75 ± 1.11 mm
Mean salivation (blot diameter) ([3]; compound A 40 mg/kg p.o. + saline s.c.): 8.25 ± 0.63 mm
Mean salivation (blot diameter) ([3]; compound A 40 mg/kg p.o. + scopolamine 0.1 mg/kg s.c.): 2.13 ± 0.63 mm
Influence on scopolamine-induced change in salivation ([3]; compound A pretreatment, p>0.05 vs vehicle): no influence on the scopolamine-induced changes
Block of voltage-sensitive sodium channels [4]: use-dependent block of voltage-sensitive sodium channels
Difference between days, % Decrease ([5]; saline s.c. + compound A 40 mg/kg p.o., p <0.001): 50%
Mean latency Day 1 [5, 10]: 38.3 ± 3.8 s
Mean latency Day 2 [5, 10]: 19.3 ± 3.0 s
Difference between days, % Decrease ([5]; scopolamine 0.1 mg/kg s.c. + compound A 10 mg/kg p.o., p NS): 0%
Mean latency Day 1 [5, 11]: 40.8 ± 4.8 s
Mean latency Day 2 [5, 11]: 40.8 ± 4.6 s
Difference between days, % Decrease ([5]; scopolamine 0.1 mg/kg s.c. + compound A 20 mg/kg p.o., p NS*): 16%
Mean latency Day 1 [5, 12]: 37.7 ± 4.4 s
Mean latency Day 2 [5, 12]: 31.7 ± 3.9 s
Difference between days, % Decrease ([5]; scopolamine 0.1 mg/kg s.c. + compound A 40 mg/kg p.o., p <0.01): 45%
Mean latency Day 1 [5, 13]: 38.4 ± 4.1 s
Mean latency Day 2 [5, 13]: 21.1 ± 3.6 s

Source: patent publication US5866597A, “Use of triazine compounds for the treatment of memory and learning disorders” (Glaxo Wellcome Inc., priority 1993, dated 1999)
